Measured values: patent US5563044A, “Process for the enzymatic preparation of GRF(1-44)NH2” (Hoffmann-La Roche Inc., priority 1995, dated 1996)
Ends that are not written are not given here.

Experiments:
[1] = qualitative statement in background; comparison of the 44, 40 and 37 amino acid forms and the free acid; cited from earlier work
[2] = system: rat pituitary cell cultures; assay: In vitro bioassay in rat pituitary cell cultures with a specific rat growth hormone radioimmunoassay; type: cell-based; details: relative potency; rat pituitary in vitro bioassay in which the potency of GRF(1-44)-NH2 standard is 1.00; enzymatically prepared product of Example 1
Method: All amino acid derivatives were of the L-configuration and purchased from Bachem (Torrance, Calif.). Porcine trypsin (Sigma, Type IX) was assayed against N^α benzoyl-L-arginine ethyl ester (BAEE) and the specific activity determined to be 1.85×10^4 U/mg. It was treated with N-tosyl-L-phenylalaninechloromethylketone (TPCK) [G. Schoellman and E. Shaw, Biochemistry, 2, 252 ([…])] and dialyzed extensively against distilled water and lyophilized to give 2.02×10^4 U/mg. N,N-Dimethylacetamide (Kodak, Spectro Grade) and 1,4-butanediol (Sigma, Gold Label) were dried over 3A sieves. Tryptic digests were carried out in solutions of the peptide (1 mg/mL) and bovine trypsin (Millipore, 0.1 mg/mL) in 0.5M NH4 HCO3 (pH 8.0) for 20 hours. All pH measurements were made with a glass electrode. In vitro bioassays were done in rat pituitary cell cultures and using a specific rat growth hormone radioimmunoassay as previously described (P. Brazeau et al., Proc. Natl. Acad. Sci. USA, 79, 7909 (1982). GRF(1-43)-OH was prepared by solid-phase synthesis as follows:
The final yield of GRF(1-44)-NH2 was 1.95 mg ([…], 37%). FAB-MS: (M+H)^+ Calc: 5040.7, Found: 5040.5. Amino Acid Anal (6M HCl; 110° C., 72 h.): Asp, 4.12(4); Thr, 0.97(1); Ser, 3.65(4); Glu, 7.54(7); Gly, 2.99(3); Ala, 5.27(5); Val, 1.04(1); Met, 0.92(1); Ile, 2.01(2); Leu, 5.13(5); Tyr, 1.87(2); Phe, 0.91(1); Lys, 2.03(2); Arg, 5.54(6). […]

Substance	Level of activity / potency among GRF forms [1]	In vitro biological potency [2]
GRF(1-40)-OH (YADAIFTNSYRKVLGQLSARKLLQDIMSRQQGESNQERGA-OH; UniProt P01286 32-71, looked up, fragment) [free acid form of Growth Hormone Releasing Factor mentioned in the background, reference compound]	substantially lower level of activity	–
GRF(1-44)-NH2	full intrinsic activity and highest potency	0.92±0.22
